The results in this text go back to ChEMBL document CHEMBL1150024, “Synthesis and antiviral evaluation of enantiomeric 2,3-dideoxy- and 2,3-didehydro-2,3-dideoxy-4-thionucleosides” (Bioorg Med Chem Lett, 1995).

pIC50: −log10 of the molar value.

One data set relates to HepG2. In words: In vitro antiviral activity against HBV in Hep G2 cells. Type of data set: functional, cell-based. Conditions: Homo sapiens.
The compound `Nc1ccn([C@@H]2CC[C@H](CO)O2)c(=O)n1` showed a negative logarithm of the IC50 (pIC50) of less than 4.00.

Consider `Nc1nc(=O)n([C@H]2C=C[C@@H](CO)S2)cc1F`, for which the pIC50 was less than 4.30.

`Nc1ccn([C@@H]2C=C[C@H](CO)S2)c(=O)n1`: the pIC50 is 6.10.

The compound `Nc1nc(=O)n([C@@H]2CC[C@H](CO)O2)cc1F` gave a negative-log IC50 (pIC50) of less than 4.00.

Consider `Nc1nc(=O)n([C@@H]2C=C[C@H](CO)S2)cc1F`, for which the pIC50 was 5.46.

The compound `Nc1ccn([C@H]2C=C[C@@H](CO)S2)c(=O)n1` gave a pIC50 of 4.82.

In the case of `Nc1ccn([C@H]2CC[C@@H](CO)O2)c(=O)n1` [ZALCITABINE], the pIC50 was less than 4.00.

Test system in the next data set: not listed separately
In words: In vitro cytotoxic activity against Vero cells. In kind it is cell-based. As to conditions: chlorocebus sabaeus, read-out: CCID50.
As for `Nc1ccn([C@@H]2CC[C@H](CO)O2)c(=O)n1`, the CC50 is more than 500 µM.

Turning to `Nc1nc(=O)n([C@H]2C=C[C@@H](CO)S2)cc1F`, the CC50 was more than 500 µM.

For `Nc1ccn([C@@H]2C=C[C@H](CO)S2)c(=O)n1`, the CC50 was more than 500 µM.

Turning to `Nc1nc(=O)n([C@@H]2CC[C@H](CO)O2)cc1F`, the CC50 is more than 500 µM.

`Nc1nc(=O)n([C@@H]2C=C[C@H](CO)S2)cc1F`: the CC50 is more than 500 µM.

As to `Nc1ccn([C@H]2C=C[C@@H](CO)S2)c(=O)n1`, the CC50 was more than 500 µM.

For the compound `Nc1ccn([C@H]2CC[C@@H](CO)O2)c(=O)n1` [ZALCITABINE], the CC50 was more than 500 µM.

In another data set the test system is HeLa. The data set is described as follows: In vitro antiviral activity against HIV in HeLa CD4 cells. Type of data set: functional, cell-based. As to conditions: Homo sapiens.
Regarding `Nc1ccn([C@@H]2CC[C@H](CO)O2)c(=O)n1`, the pIC50 was less than 4.30.

`Nc1nc(=O)n([C@H]2C=C[C@@H](CO)S2)cc1F` gave a pIC50 of more than 4.30.

As to `Nc1ccn([C@@H]2C=C[C@H](CO)S2)c(=O)n1`, the negative-log IC50 (pIC50) is 6.10.

`Nc1nc(=O)n([C@@H]2CC[C@H](CO)O2)cc1F`: the negative logarithm of the IC50 (pIC50) is less than 4.30.

Compound `Nc1nc(=O)n([C@@H]2C=C[C@H](CO)S2)cc1F` gave a negative-log IC50 (pIC50) of 6.40.

As to `Nc1ccn([C@H]2C=C[C@@H](CO)S2)c(=O)n1`, the pIC50 is 4.64. This pIC50 lies 1.76 log units lower than the previous one.

Regarding `Nc1ccn([C@H]2CC[C@@H](CO)O2)c(=O)n1` [ZALCITABINE], the negative-log IC50 (pIC50) is 4.42. Compared with the last compound, the pIC50 is 0.22 log units lower.

One may read the pIC50 as −log10 of the IC50, conventionally taken in molar units.
